Laboratory results as given in the supplement of paper PMC6045584.
± gives the standard deviation of the averaged measurements.

Assays:
[1] = compound: CCN(CC)CCCCNc1ncc2cc(-c3cc(OC)cc(OC)c3)c(NC(=O)NC(C)(C)C)nc2n1; experiment: surviving fraction relative to DMSO-only wells; higher = less growth inhibition; details: exposure time: 5 days
In short: (§1)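 Luminescence normalised to the median of DMSO-only wells defines surviving fraction, with viability read by CellTiter-Glo. Signal was recorded after 10 minutes at room temperature, once log-phase tumour cell lines seeded at 250–500 cells per well in 384-well plates had spent 24 hours settling and then five days under continuous exposure to inhibitors at 0.5, 1, 5, 10, 50, 100, 500 and 1000 nM.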

NUTLIN3 = compound: COc1ccc(C2=N[C@@H](c3ccc(Cl)cc3)[C@@H](c3ccc(Cl)cc3)N2C(=O)N2CCNC(=O)C2)c(OC(C)C)c1 [NUTLIN3]; experiment: as above; details: exposure time: 5 days
In short: as §1

Test System	surviving fraction ([1]; 0.5 nM)	surviving fraction ([1]; 1 nM)	surviving fraction ([1]; 5 nM)	surviving fraction ([1]; 10 nM)	surviving fraction ([1]; 50 nM)	surviving fraction ([1]; 100 nM)	surviving fraction ([1]; 500 nM)	surviving fraction ([1]; 1000 nM)	surviving fraction (NUTLIN3; 0.5 nM)	surviving fraction (NUTLIN3; 1 nM)	surviving fraction (NUTLIN3; 5 nM)	surviving fraction (NUTLIN3; 10 nM)	surviving fraction (NUTLIN3; 50 nM)	surviving fraction (NUTLIN3; 100 nM)	surviving fraction (NUTLIN3; 500 nM)	surviving fraction (NUTLIN3; 1000 nM)
HCC1395 BREAST	0.991 ± 0.2	0.785 ± 0.093	0.968 ± 0.14	0.9 ± 0.021	0.872 ± 0.14	0.867 ± 0.074	0.826 ± 0.17	0.818 ± 0.18	1.18 ± 0.046	1.14 ± 0.1	1.25 ± 0.022	1.12 ± 0.069	1.21 ± 0.06	1.09 ± 0.061	0.999 ± 0.094	1.13 ± 0.16
HCC1806 BREAST	1.11 ± 0.012	0.967 ± 0.1	1.11 ± 0.065	1.14 ± 0.033	1.11 ± 0.089	1.07 ± 0.043	1.06 ± 0.13	1.1 ± 0.095	1.07 ± 0.079	1.04 ± 0.1	1.07 ± 0.15	1.08 ± 0.13	1.07 ± 0.1	1.05 ± 0.17	1.05 ± 0.16	1.17 ± 0.2
HCC1954 BREAST	1.01 ± 0.021	1.04 ± 0.04	0.945 ± 0.058	1.11 ± 0.051	1.08 ± 0.041	1.04 ± 0.2	0.829 ± 0.072	0.951 ± 0.11	1.17 ± 0.071	1.16 ± 0.08	1.11 ± 0.07	1.01 ± 0.36	1.22 ± 0.26	1.14 ± 0.064	1.15 ± 0.051	0.99 ± 0.036
HCT15 LARGE INTESTINE	0.875 ± 0.033	0.981 ± 0.02	0.971 ± 0.025	1.01 ± 0.012	0.963 ± 0.027	0.9977 ± 0.0093	0.987 ± 0.011	1.06 ± 0.047	1.01 ± 0.038	1.01 ± 0.013	1.01 ± 0.018	0.992 ± 0.013	1.05 ± 0.034	1.07 ± 0.061	1.04 ± 0.056	1.01 ± 0.017
HELA CERVIX	0.979 ± 0.028	0.994 ± 0.034	0.971 ± 0.042	0.984 ± 0.019	1.03 ± 0.047	1.07 ± 0.065	1.06 ± 0.023	1.13 ± 0.075	1.01 ± 0.092	1 ± 0.039	1 ± 0.025	0.984 ± 0.043	1.06 ± 0.044	1.07 ± 0.041	1.08 ± 0.03	1.13 ± 0.039
